21 compounds from patent US12378243B2, “Quinoline compounds as inhibitors of KRAS” (Incyte Corporation, priority 2021, dated 2025) can be followed below.

Data set [1] addresses KRAS G12D (Homo sapiens, UniProt P01116, G12D). In words: GDP-GTP exchange assay, KRAS G12D. The settings on record: bodipy-loaded KRAS G12D 2.5 nM, GppNHp 500 uM, SOS1 150 nM; 4 hours pre-incubation, 2 hours incubation; read-out: G12D_exchange. It is filed as biochemical. The protocol: Inhibitors were serially diluted in DMSO and a volume of 0.1 μL was transferred to the wells of a black low volume 384-well plate. […] The exchange was initiated by the addition of a 5 μL/well volume containing 1 mM GppNHp and 300 nM SOS1 in assay buffer. […] The reaction plates were incubated at ambient temperature for 2 hours, a time estimated for complete GDP-GTP exchange in the absence of inhibitor.
Either GraphPad prism or Genedata Screener SmartFit was used to analyze the data. The IC50 values were derived by fitting the data to a four parameter logistic equation producing a sigmoidal dose-response curve with a variable Hill coefficient.
“NA” indicates IC50 not available.

Data set [2] addresses KRAS G12V mutant (Homo sapiens, UniProt P01116, G12V). Kind of data set: GDP-GTP exchange assay, KRAS G12V. It is filed as biochemical. As to conditions: bodipy loaded KRAS G12V 2.5 nM; 3 hours incubation after adding GppNHp-SOS1 mixture; read-out: G12V_exchange.
Data set [3] concerns Caco-2 cells. In words: Caco2 assay (permeability, A-B). It is filed as in vitro ADME. The settings on record: Papp absorptive direction (A-B), test compound 50 μM, 120 minutes at 37° C. The protocol: Caco-2 cells are grown at 37° C. in an atmosphere of 5% CO2 in DMEM growth medium supplemented with 10% (v/v) fetal bovine serum, 1% (v/v) nonessential amino acids, penicillin (100 U/mL), and streptomycin (100 μg/mL). Confluent cell monolayers are subcultured every 7 days or 4 days for Caco-2 by treatment with 0.05% trypsin containing […]. Caco-2 cells are seeded in 96-well Transwell plates. The seeding density for Caco-2 cells is 14,000 cells/well. DMEM growth medium is replaced every other day after seeding. Cell monolayers are used for transport assays between 22 and 25 days for Caco-2 cells.
Cell culture medium is removed and replaced with HBSS. To measure the TEER, the HBSS is added into the donor compartment (apical side) and receiver compartment (basolateral side). The TEER is measured by using a REMS Autosampler to ensure the integrity of the cell monolayers. Caco-2 cell monolayers with TEER values ≥300 Ω·cm^2 are used for transport experiments. To determine the Papp in the absorptive direction (A-B), solution of test compound (50 μM) in HBSS is added to the donor compartment (apical side), while HBSS solution with 4% BSA is added to the receiver compartment (basolateral side). The apical volume was 0.075 mL, and the basolateral volume is 0.25 mL. The incubation period is 120 minutes at 37° C. in an atmosphere of 5% CO2. At the end of the incubation period, samples from the donor and receiver sides are removed and an equal volume of acetonitrile is added for protein precipitation. The supernatants are collected after centrifugation (3000 rpm, Allegra X-14R Centrifuge from Beckman Coulter, Indianapolis, IN) for LCMS analysis. The permeability value is determined according to the equation:
[formula] • where the flux rate (F, mass/time) is calculated from the slope of cumulative amounts of compound of interest on the receiver side, SA is the surface area of the cell membrane, VD is the donor volume, and MD is the initial amount of the solution in the donor chamber.
The symbol “+” indicates a Caco-2 value of […], “++” indicates a Caco-2 value of >0.5 but ≤1; and “+++” indicates a Caco-2 value of >1. “NA” indicates IC50 not available.

Structures are written as SMILES.

KRAS G12V mutant, sequence (P01116 1-188 isoform P01116-2 G12V): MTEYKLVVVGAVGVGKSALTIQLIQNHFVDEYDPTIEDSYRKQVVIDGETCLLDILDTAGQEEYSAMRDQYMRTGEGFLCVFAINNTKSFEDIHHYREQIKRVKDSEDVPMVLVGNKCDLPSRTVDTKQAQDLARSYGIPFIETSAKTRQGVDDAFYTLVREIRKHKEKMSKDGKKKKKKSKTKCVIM
KRAS G12D, sequence (P01116 1-188 isoform P01116-2 G12D): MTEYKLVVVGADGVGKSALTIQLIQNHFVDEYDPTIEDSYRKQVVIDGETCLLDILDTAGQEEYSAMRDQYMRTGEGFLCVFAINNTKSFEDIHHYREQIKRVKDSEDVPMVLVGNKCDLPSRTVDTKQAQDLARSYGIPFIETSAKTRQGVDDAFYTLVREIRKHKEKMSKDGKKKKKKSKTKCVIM

On to `CC(=O)N1CC[C@H](n2ncc3c(O[C@@H](C)[C@@H]4CCCN4C)nc4c(F)c(-c5cccc6cccc(C#N)c56)c(C#N)cc4c32)C[C@H]1CC#N` (single isomer, unassigned) [Example 7], for which the IC50 in data set [1] and in data set [2] was below 100 nM in each case. Also, the Caco-2 result in data set [3] (Table 3) is listed as “+++ (a Caco-2 value of >1)”.
Take `Cc1cc2c(nc(O[C@@H](C)[C@@H]3CCCN3C)c3cc(CN4CCOCC4=O)n([C@H]4[C@H]5CN[C@@H]4C5)c32)c(F)c1-c1cccc2cccc(C#N)c12` (single isomer, unassigned) [Example 8]: the IC50 in data set [1] and in data set [2] was below 100 nM in each case. Besides, in data set [3] (Table 3), the Caco-2 entry is on record as “+ (a Caco-2 value of 50.5)”.
For the compound `C[C@H](Oc1nc2c(F)c(-c3csc4ccccc34)c(CCC#N)cc2c2c1cc(CN1CCCC1=O)n2[C@H]1[C@H]2CN[C@@H]1C2)[C@@H]1CCCN1C` (single isomer, unassigned) [Example 9], the IC50 in data set [1] and in data set [2] was below 100 nM in each case. Besides, the Caco-2 result in data set [3] (Table 3) is recorded as “+ (a Caco-2 value of 50.5)”.
With `C[C@@H](CN(C)C)Oc1nc2c(F)c(-c3cccc4ccc(F)cc34)c(CCC#N)cc2c2c1cc(CN1CCCC1=O)n2[C@H]1[C@H]2CN[C@@H]1C2` (single isomer, unassigned) [Example 10], the IC50 in data set [1] and in data set [2] was below 100 nM each time. The Caco-2 entry in data set [3] (Table 3) was “+ (a Caco-2 value of 50.5)”.
Turning to `Cc1cc2c(O[C@@H](C)[C@@H]3CCCN3C)nc3c(F)c(-c4cccc5cccc(C#N)c45)c(CCC#N)cc3c2n1[C@H]1[C@H]2CN[C@@H]1C2` (single isomer, unassigned) [Example 11], the IC50 in data set [1] and in data set [2] was below 100 nM throughout. The Caco-2 entry in data set [3] (Table 3) is on record as “+ (a Caco-2 value of 50.5)”.
With `Cc1cc2c(O[C@@H](C)[C@@H]3CCCN3C)nc3c(F)c(-c4cc(O)cc(Cl)c4Cl)c(CCC#N)cc3c2n1[C@H]1[C@H]2CN[C@@H]1C2` (single isomer, unassigned) [Example 12], the IC50 in data set [1] and in data set [2] was below 100 nM throughout. Also, in data set [3] (Table 3), the Caco-2 entry was “+ (a Caco-2 value of 50.5)”.
As for `CN1CC(F)(COc2nc3c(F)c(-c4cc(O)cc5ccccc45)c(CCC#N)cc3c3c2cc(CCC(=O)N(C)C)n3[C@H]2[C@H]3CN[C@@H]2C3)C1` (single isomer, unassigned) [Example 13], the IC50 in data set [1] and in data set [2] was below 100 nM in each case.
For the compound `Cc1cnc(-c2nc3c(F)c(-c4cc(O)cc5ccccc45)c(CCC#N)cc3c3c2cc(C)n3[C@H]2[C@H]3CN[C@@H]2C3)cn1` (single isomer, unassigned) [Example 14], the IC50 in data set [1] and in data set [2] was below 100 nM each time. Further, in data set [3] (Table 3), the Caco-2 result is “++ (a Caco-2 value of >0.5 but ≤1)”.
As to `C[C@H](Oc1nc2c(F)c(-c3cccc4ccc(F)c(F)c34)c(CCC#N)cc2c2c1cc(CCC(=O)N1CCC1)n2[C@H]1[C@H]2CN[C@@H]1C2)[C@@H]1CCCN1C` (single isomer, unassigned) [Example 20], the IC50 in data set [1] and in data set [2] was below 100 nM each time. Besides, the Caco-2 entry in data set [3] (Table 3) is recorded as “+ (a Caco-2 value of 50.5)”.
For `C[C@H](Oc1nc2c(F)c(-c3cccc4cc(F)c(F)cc34)c(CCC#N)cc2c2c1cc(CCC(=O)N1CCC1)n2[C@H]1[C@H]2CN[C@@H]1C2)[C@@H]1CCCN1C` (single isomer, unassigned) [Example 21], the IC50 in data set [1] and in data set [2] was below 100 nM each time. Moreover, in data set [3] (Table 3), the Caco-2 result is given as “+ (a Caco-2 value of 50.5)”.
With `Cc1cc2c(O[C@@H](C)[C@@H]3CCCN3C)nc3c(F)c(-c4cc(O)cc5ccc(F)cc45)c(CCC#N)cc3c2n1[C@H]1[C@H]2CN[C@@H]1C2` (single isomer, unassigned) [Example 22], the IC50 in data set [1] and in data set [2] was below 100 nM in each case. In data set [3] (Table 3), the Caco-2 entry is listed as “+ (a Caco-2 value of 50.5)”.
With `CC(=O)N1CC[C@H](n2ncc3c(O[C@@H](C)[C@@H]4CCCN4C)nc4c(F)c(-c5nccc6cccc(C#N)c56)c(Cl)cc4c32)C[C@H]1CC#N` (single isomer, unassigned) [Example 23a], the IC50 in data set [1] and in data set [2] was below 100 nM each time.
As to `CC(=O)N1CC[C@H](n2ccc3c(O[C@@H](C)[C@@H]4CCCN4C)nc4c(F)c(-c5cccc6cccc(C#N)c56)c(Cl)cc4c32)C[C@H]1CC#N` (single isomer, unassigned) [Example 24a], the IC50 in data set [1] and in data set [2] was below 100 nM in each case.
As to `Cc1nc2c(F)c(-c3cccc(Cl)c3Cl)c(CCC#N)cc2c2c1cc(C1CCc3cccc(=O)n31)n2[C@H]1[C@H]2CN[C@@H]1C2` (single isomer, unassigned) [Example 31], the IC50 in data set [1] and in data set [2] was below 100 nM in each case. In addition, the Caco-2 entry in data set [3] (Table 4) was “+ (a Caco-2 value of 50.5)”.
Consider `CC(=O)N1CCC[C@@H]1c1cc2c(-c3ccnc(C)c3)nc3c(F)c(-c4cccc5c4C(C#N)CCC5)c(C)cc3c2n1[C@H]1[C@H]2CN[C@@H]1C2` (single isomer, unassigned) [Example 35], for which the IC50 in data set [1] and in data set [2] was below 100 nM in each case. Also, the Caco-2 entry in data set [3] (Table 4) is on record as “++ (a Caco-2 value of >0.5 but ≤1)”.
As to `CNC(=O)c1ccc(-c2nc3c(F)c(-c4cccc(Cl)c4C)c(CCC#N)cc3c3c2cc([C@@H](C)n2ccncc2=O)n3[C@H]2[C@H]3CN[C@@H]2C3)cn1` (single isomer, unassigned) [Example 36], the IC50 in data set [1] and in data set [2] was below 100 nM throughout. Moreover, the Caco-2 entry in data set [3] (Table 4) is reported as “+++ (a Caco-2 value of >1)”.
Consider `Cc1cnc(-c2nc3c(F)c(-c4cccc(Cl)c4C)c(CCC#N)cc3c3c2cc([C@@H](C)n2ccncc2=O)n3[C@H]2[C@H]3CN[C@@H]2C3)cn1` (single isomer, unassigned) [Example 38], for which the IC50 in data set [1] and in data set [2] was below 100 nM throughout. For the same compound, the Caco-2 result in data set [3] (Table 4) is “+++ (a Caco-2 value of >1)”.
Regarding `CNC(=O)c1ccc(-c2nc3c(F)c(-c4cccc(Cl)c4Cl)c(CCC#N)cc3c3c2cc([C@@H](C)n2ccncc2=O)n3[C@H]2[C@H]3CN[C@@H]2C3)cc1F` (single isomer, unassigned) [Example 54b], the IC50 in data set [1] and in data set [2] was below 100 nM throughout. Further, in data set [3] (Table 4), the Caco-2 result is on record as “+++ (a Caco-2 value of >1)”.
In the case of `CC(=O)N1CC[C@H](n2ncc3c(O[C@@H](C)[C@@H]4CCCN4C)nc4c(F)c(-c5nccc6cccc(C#N)c56)c(Cl)cc4c32)C[C@H]1CC#N` [Example 23, 1-(1-((2S,4S)-1-Acetyl-2-(cyanomethyl)piperidin-4-yl)-8-chloro-6-fluoro-4-((S)-1-((S)-1-methylpyrrolidin-2-yl)ethoxy)-1H-pyrazolo[4,3-c]quinolin-7-yl)isoquinoline-8-carbonitrile], the Caco-2 result in data set [3] (Table 3) was “++ (a Caco-2 value of >0.5 but ≤1)”.
On the same count and under the same terms, the entry for `CC(=O)N1CC[C@H](n2ccc3c(O[C@@H](C)[C@@H]4CCCN4C)nc4c(F)c(-c5cccc6cccc(C#N)c56)c(Cl)cc4c32)C[C@H]1CC#N` [Example 24, 8-(1-((2S,4S)-1-acetyl-2-(cyanomethyl)piperidin-4-yl)-8-chloro-6-fluoro-4-((S)-1-((S)-1-methylpyrrolidin-2-yl)ethoxy)-1H-pyrrolo[3,2-c]quinolin-7-yl)-1-naphthonitrile] is “+ (a Caco-2 value of 50.5)”.
Take `Cc1cnc(-c2nc3c(F)c(-c4cccc(Cl)c4C)c(CCC#N)cc3c3c2cc([C@@H](C)N2CCOCC2=O)n3[C@H]2[C@H]3CN[C@@H]2C3)cn1` [Example 44, 3-(1-((1R,4R,5S)-2-Azabicyclo[2.1.1]hexan-5-yl)-7-(3-chloro-2-methylphenyl)-6-fluoro-4-(5-methylpyrazin-2-yl)-2-((R)-1-(3-oxomorpholino)ethyl)-1H-pyrrolo[3,2-c]quinolin-8-yl)propanenitrile]: in data set [3] (Table 4), the Caco-2 result is on record as “+++ (a Caco-2 value of >1)”.
